Data as given in patent US9980943B2, “Methods of treating muscular dystrophy” (BOARD OF REGENTS OF THE NEVADA SYSTEM OF HIGHER EDUCATION, …, priority 2013, dated 2018).

What was measured:
Assay type in all cases: cell-based, mouse
[1] = tested on: β-galactosidase in CMV-LacZ C2C12 myotubes; experiment: CMV-LacZ secondary screen in C2C12 myotubes (β-Gal stabilizing assay); conditions: C2C12 CMV-LacZ myotubes, fold relative to DMSO
In short: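 Stable CMV-LacZ C2C12 clone; six-point curve 0.5–40 μM; duplicates.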

[2] = tested on: α7 integrin (LacZ reporter in α7βgal+/− myoblasts); experiment: Myoblast α7+/LacZ integrin FDG assay (Burkin assay in myoblasts, 96-well); conditions: α7+/LacZ myoblasts, 96-well
[3] = tested on: α7 integrin (LacZ reporter in α7+/LacZ myotubes); experiment: Myotube α7 integrin FDG assay (Burkin assay in myotubes, 96-well); conditions: myotubes
[4] = tested on: β-galactosidase in CMV-LacZ C2C12 myoblasts; experiment: CMV-LacZ secondary screen in C2C12 myoblasts (β-Gal stabilizing assay); conditions: CMV-LacZ C2C12 myoblasts
In short: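 A secondary screen identifies compounds that stabilize β-gal independently of the native promoter, using CMV-LacZ C2C12 cells. Curves span 0.5–40 μM at six levels, in duplicate.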

Row | Structure (SMILES) | CMV-LACZ in Myotubes, signal relative to DMSO ([1]; 0.5 uM) | CMV-LACZ in Myotubes, signal relative to DMSO ([1]; 1 uM) | CMV-LACZ in Myotubes, signal relative to DMSO ([1]; 5 uM) | CMV-LACZ in Myotubes, signal relative to DMSO ([1]; 10 uM) | CMV-LACZ in Myotubes, signal relative to DMSO ([1]; 20 uM) | CMV-LACZ in Myotubes, signal relative to DMSO ([1]; 40 uM) | Burkin Assay in Myoblasts, signal relative to DMSO ([2]; 0.5 uM) | Burkin Assay in Myoblasts, signal relative to DMSO ([2]; 1 uM) | Burkin Assay in Myoblasts, signal relative to DMSO ([2]; 5 uM) | Burkin Assay in Myoblasts, signal relative to DMSO ([2]; 10 uM) | Burkin Assay in Myoblasts, signal relative to DMSO ([2]; 20 uM) | Burkin Assay in Myoblasts, signal relative to DMSO ([2]; 40 uM) | Burkin Assay in Myotubes, α7 integrin LacZ reporter signal relative to DMSO ([3]; 0.5 uM) | Burkin Assay in Myotubes, α7 integrin LacZ reporter signal relative to DMSO ([3]; 1 uM) | Burkin Assay in Myotubes, α7 integrin LacZ reporter signal relative to DMSO ([3]; 5 uM) | Burkin Assay in Myotubes, α7 integrin LacZ reporter signal relative to DMSO ([3]; 10 uM) | Burkin Assay in Myotubes, α7 integrin LacZ reporter signal relative to DMSO ([3]; 20 uM) | Burkin Assay in Myotubes, α7 integrin LacZ reporter signal relative to DMSO ([3]; 40 uM) | CMV-LACZ in Myoblasts (β-galactosidase activity relative to DMSO) ([4]; 0.5 uM) | CMV-LACZ in Myoblasts (β-galactosidase activity relative to DMSO) ([4]; 1 uM) | further results
1 | Cc1ccc(NS(=O)(=O)c2cccc(C(=O)O)c2)cc1S(=O)(=O)N1CCOCC1 [MLS000393966-01] | 0.9358 | 1.3516 | 0.8958 | 1.1877 | 1.0378 | 1.1167 | 0.9495 | 0.9626 | 1.793 | 1.076 | 0.9904 | 0.965 | 0.8547 | 0.8436 | 1.304 | 0.9546 | 1.233 | 1.015 | 0.9249 | 1.0625 | CMV-LACZ in Myoblasts (β-galactosidase activity relative to DMSO) ([4]; 5 uM): 1.1744; CMV-LACZ in Myoblasts (β-galactosidase activity relative to DMSO) ([4]; 10 uM): 0.8087; CMV-LACZ in Myoblasts (β-galactosidase activity relative to DMSO) ([4]; 20 uM): 1.0411; CMV-LACZ in Myoblasts (β-galactosidase activity relative to DMSO) ([4]; 40 uM): 0.9156
2 | CCOc1ccc(Br)cc1S(=O)(=O)Nc1ccc(C(=O)Nc2ccccc2OC)cc1 [MLS000418650-01] | 1.0086 | 1.2819 | 1.0198 | 1.1746 | 1.1180 | 1.2260 | 0.9156 | 1.069 | 1.13 | 0.9633 | 0.9104 | 0.9445 | 1.086 | 1.004 | 1.032 | 0.9654 | 0.7581 | 0.7593 | 0.9237 | 0.9533 | CMV-LACZ in Myoblasts (β-galactosidase activity relative to DMSO) ([4]; 5 uM): 1.0080; CMV-LACZ in Myoblasts (β-galactosidase activity relative to DMSO) ([4]; 10 uM): 0.8344; CMV-LACZ in Myoblasts (β-galactosidase activity relative to DMSO) ([4]; 20 uM): 1.1523; CMV-LACZ in Myoblasts (β-galactosidase activity relative to DMSO) ([4]; 40 uM): 1.1323
3 | Cc1[nH]c2ccc(F)cc2c1CCN(Cc1ccco1)C(=S)NC(C)(C)C [MLS000419286-01] | 0.9990 | 1.1867 | 1.0268 | 1.1581 | 0.8530 | 0.7830 | 1.166 | 1.002 | 0.9174 | 0.8951 | 0.7945 | 0.7199 | 0.9511 | 0.8124 | 0.879 | 0.948 | 0.457 | 0.193 | 0.9960 | 0.7960 | CMV-LACZ in Myoblasts (β-galactosidase activity relative to DMSO) ([4]; 5 uM): 0.9701; CMV-LACZ in Myoblasts (β-galactosidase activity relative to DMSO) ([4]; 10 uM): 0.8022; CMV-LACZ in Myoblasts (β-galactosidase activity relative to DMSO) ([4]; 20 uM): 0.9368; CMV-LACZ in Myoblasts (β-galactosidase activity relative to DMSO) ([4]; 40 uM): 0.6295
4 | Cc1nnc(SCC(=O)c2ccc(Br)cc2)s1 [MLS000420298-01] | 0.9573 | 0.8527 | 1.0338 | 1.2388 | 1.3660 | 1.1250 | 1.379 | 1.243 | 1.083 | 1.1 | 1.111 | 0.9235 | 0.9538 | 1.0464 | 0.9453 | 0.9005 | 0.91 | 1.006 | 1.2808 | 0.9383 | CMV-LACZ in Myoblasts (β-galactosidase activity relative to DMSO) ([4]; 5 uM): 0.8414; CMV-LACZ in Myoblasts (β-galactosidase activity relative to DMSO) ([4]; 10 uM): 1.0482; CMV-LACZ in Myoblasts (β-galactosidase activity relative to DMSO) ([4]; 20 uM): 0.9807; CMV-LACZ in Myoblasts (β-galactosidase activity relative to DMSO) ([4]; 40 uM): 1.1930
5 | CSc1ccc(S(=O)(=O)NCc2ccccc2)cc1 [MLS000531177-01] | 1.1989 | 1.0411 | 0.8757 | 0.8917 | 0.9244 | 1.1522 | 0.8826 | 0.923 | 1.067 | 1.625 | 1.014 | 0.8008 | 0.8259 | 0.7329 | 1.051 | 1.163 | 0.8007 | 0.9005 | 1.0785 | 1.5065 | CMV-LACZ in Myoblasts (β-galactosidase activity relative to DMSO) ([4]; 5 uM): 1.0150; CMV-LACZ in Myoblasts (β-galactosidase activity relative to DMSO) ([4]; 10 uM): 0.8958; CMV-LACZ in Myoblasts (β-galactosidase activity relative to DMSO) ([4]; 20 uM): 1.2952; CMV-LACZ in Myoblasts (β-galactosidase activity relative to DMSO) ([4]; 40 uM): 0.9422
6 | Cn1c(O)c(C(C#N)=C2N=c3ccccc3=N2)c2ccccc21 [MLS000536064-01] | 0.9705 | 1.0389 | 0.8894 | 1.1027 | 1.2344 | 1.0233 | 0.8028 | 0.804 | 0.7333 | 1.047 | 0.544 | 0.4501 | 0.9046 | 0.9555 | 0.9539 | 1.131 | 0.7642 | 0.7073 | 0.9105 | 0.7412 | CMV-LACZ in Myoblasts (β-galactosidase activity relative to DMSO) ([4]; 5 uM): 2.0402; CMV-LACZ in Myoblasts (β-galactosidase activity relative to DMSO) ([4]; 10 uM): 1.3388; CMV-LACZ in Myoblasts (β-galactosidase activity relative to DMSO) ([4]; 20 uM): 2.5396; CMV-LACZ in Myoblasts (β-galactosidase activity relative to DMSO) ([4]; 40 uM): 2.4896
